{"source": "paper PMC10385824", "about": "“Antiproliferative and Tubulin-Destabilising Effects of 3-(Prop-1-en-2-yl)azetidin-2-Ones and Related Compounds in MCF-7 and MDA-MB-231 Breast Cancer Cells” (Pharmaceuticals, 2023)", "key": {"[1]": {"system": "K-562", "experiment": "NCI-60 SRB screen, leukemia", "format": "cell-based, human", "settings": "Homo sapiens, K562, 48 h; read-out: GI50"}, "[2]": {"system": "MOLT-4", "experiment": "NCI-60 SRB screen, leukemia", "format": "cell-based, human", "settings": "Homo sapiens; MOLT-4; five dose 0.01–100 µM, 48 h; read-out: GI50"}, "[3]": {"system": "SR", "experiment": "NCI-60 SRB screen, leukemia", "format": "cell-based, human", "settings": "Homo sapiens, five dose 0.01–100 µM, 48 h, read-out: GI50"}, "[4]": {"system": "A549/ATCC", "experiment": "NCI-60 SRB screen, non-small cell lung cancer", "format": "cell-based, human", "settings": "Homo sapiens; A549/ATCC; five dose 0.01–100 µM, 48 h; read-out: GI50"}, "[5]": {"system": "EKVX", "experiment": "NCI-60 SRB screen, non-small cell lung cancer", "format": "cell-based, human", "settings": "Homo sapiens, five dose 0.01–100 µM, 48 h, read-out: GI50"}, "[6]": {"system": "HOP-92", "experiment": "NCI-60 SRB screen, non-small cell lung cancer", "format": "cell-based, human", "settings": "Homo sapiens; HOP-92; five dose 0.01–100 µM, 48 h; read-out: GI50"}, "[7]": {"system": "NCI-H23", "experiment": "NCI-60 SRB screen, non-small cell lung cancer", "format": "cell-based, human", "settings": "Homo sapiens; NCI-H23; five dose 0.01–100 µM, 48 h; read-out: GI50"}, "[8]": {"system": "NCI-H552", "experiment": "NCI-60 SRB screen, non-small cell lung cancer", "format": "cell-based, human", "settings": "Homo sapiens; NCI-H552; five dose 0.01–100 µM, 48 h; read-out: GI50"}, "[9]": {"system": "COLO 205", "experiment": "NCI-60 SRB screen, colon cancer", "format": "cell-based, human", "settings": "Homo sapiens; COLO 205; five dose 0.01–100 µM, 48 h; read-out: GI50"}, "[10]": {"system": "HCT-2998", "experiment": "NCI-60 SRB screen, colon cancer", "format": "cell-based, human", "settings": "Homo sapiens; HCT-2998; five dose 0.01–100 µM, 48 h; read-out: GI50"}, "[11]": {"system": "HCT-15", "experiment": "NCI-60 SRB screen, colon cancer", "format": "cell-based, human", "settings": "Homo sapiens; HCT-15; five dose 0.01–100 µM, 48 h; read-out: GI50"}, "[12]": {"system": "KM12", "experiment": "NCI-60 SRB screen, colon cancer", "format": "cell-based, human", "settings": "Homo sapiens; KM12; five dose 0.01–100 µM, 48 h; read-out: GI50"}, "[13]": {"system": "SW-620", "experiment": "NCI-60 SRB screen, colon cancer", "format": "cell-based, human", "settings": "Homo sapiens; SW-620; five dose 0.01–100 µM, 48 h; read-out: GI50"}, "[14]": {"system": "SF539", "experiment": "NCI-60 SRB screen, CNS cancer", "format": "cell-based, human", "settings": "Homo sapiens, SF-539; SF539; five dose 0.01–100 µM, 48 h; read-out: GI50"}, "[15]": {"system": "SNB-19", "experiment": "NCI-60 SRB screen, CNS cancer", "format": "cell-based, human", "settings": "Homo sapiens; SNB-19; five dose 0.01–100 µM, 48 h; read-out: GI50"}, "[16]": {"system": "U251", "experiment": "NCI-60 SRB screen, CNS cancer", "format": "cell-based, human", "settings": "Homo sapiens, U-251; U251; five dose 0.01–100 µM, 48 h; read-out: GI50"}, "[17]": {"system": "PC-3", "experiment": "NCI-60 SRB screen, prostate cancer", "format": "cell-based, human", "settings": "Homo sapiens; PC-3; five dose 0.01–100 µM, 48 h; read-out: GI50"}, "[18]": {"system": "LOX IMVI", "experiment": "NCI-60 SRB screen, melanoma", "format": "cell-based, human", "settings": "Homo sapiens, five dose 0.01–100 µM, 48 h, read-out: GI50"}, "[19]": {"system": "SK-MEL-5", "experiment": "NCI-60 SRB screen, melanoma", "format": "cell-based, human", "settings": "Homo sapiens; SK-MEL-5; five dose 0.01–100 µM, 48 h; read-out: GI50"}, "[20]": {"system": "IGROV1", "experiment": "NCI-60 SRB screen, ovarian cancer", "format": "cell-based, human", "settings": "Homo sapiens, IGROV-1; IGROV1; five dose 0.01–100 µM, 48 h; read-out: GI50"}, "[21]": {"system": "OVCAR-4", "experiment": "NCI-60 SRB screen, ovarian cancer", "format": "cell-based, human", "settings": "Homo sapiens; OVCAR-4; five dose 0.01–100 µM, 48 h; read-out: GI50"}, "[22]": {"system": "SK-OV-3", "experiment": "NCI-60 SRB screen, ovarian cancer", "format": "cell-based, human", "settings": "Homo sapiens; SK-OV-3; five dose 0.01–100 µM, 48 h; read-out: GI50"}, "[23]": {"system": "A498", "experiment": "NCI-60 SRB screen, renal cancer", "format": "cell-based, human", "settings": "Homo sapiens; A498; five dose 0.01–100 µM, 48 h; read-out: GI50"}, "[24]": {"system": "ACHN", "experiment": "NCI-60 SRB screen, renal cancer", "format": "cell-based, human", "settings": "Homo sapiens, five dose 0.01–100 µM, 48 h, read-out: GI50"}, "[25]": {"system": "CAKI-1", "experiment": "NCI-60 SRB screen, renal cancer", "format": "cell-based, human", "settings": "Homo sapiens; CAKI-1; five dose 0.01–100 µM, 48 h; read-out: GI50"}, "[26]": {"system": "SN12C", "experiment": "NCI-60 SRB screen, renal cancer", "format": "cell-based, human", "settings": "Homo sapiens, five dose 0.01–100 µM, 48 h, read-out: GI50"}, "[27]": {"system": "TK-10", "experiment": "NCI-60 SRB screen, renal cancer", "format": "cell-based, human", "settings": "Homo sapiens; TK-10; five dose 0.01–100 µM, 48 h; read-out: GI50"}, "[28]": {"system": "UO-31", "experiment": "NCI-60 SRB screen, renal cancer", "format": "cell-based, human", "settings": "Homo sapiens; UO-31; five dose 0.01–100 µM, 48 h; read-out: GI50"}, "[29]": {"system": "MDA-MB-231/ATCC", "experiment": "NCI-60 SRB screen, breast cancer", "format": "cell-based, human", "settings": "Homo sapiens, 48 h"}, "[30]": {"system": "MCF-7", "experiment": "cells", "settings": "Homo sapiens, MCF7, 48 h"}, "[31]": {"system": "NCI 60 human cancer cell line panel", "experiment": "NCI 60 cell line screen (SRB), panel values"}}, "note": "Read-outs that look alike come from different tables or passages of the source."}
{"smiles": "C=C(C)C1C(=O)N(c2cc(OC)c(OC)c(OC)c2)C1c1ccc(OC)cc1", "note": "(stereo not drawn) [9h, 4-(4-Methoxyphenyl)-1-(3,4,5-trimethoxyphenyl)-3-(prop-1-en-2-yl)azetidin-2-one]", "values": [{"measurement": "GI50", "setting": "[1]", "value": 41, "unit": "nM"}, {"measurement": "GI50", "setting": "[2]", "value": 39.7, "unit": "nM"}, {"measurement": "GI50", "setting": "[3]", "value": 38.5, "unit": "nM"}, {"measurement": "GI50", "setting": "[4]", "value": 40.8, "unit": "nM"}, {"measurement": "GI50", "setting": "[5]", "value": 81.3, "unit": "nM"}, {"measurement": "GI50", "setting": "[6]", "value": 71.9, "unit": "nM"}, {"measurement": "GI50", "setting": "[7]", "value": 23.7, "unit": "nM"}, {"measurement": "GI50", "setting": "[8]", "value": 22.2, "unit": "nM"}, {"measurement": "GI50", "setting": "[9]", "value": 27.1, "unit": "nM"}, {"measurement": "GI50", "setting": "[10]", "value": 30.7, "unit": "nM"}, {"measurement": "GI50", "setting": "[11]", "value": 40.6, "unit": "nM"}, {"measurement": "GI50", "setting": "[12]", "value": 34, "unit": "nM"}, {"measurement": "GI50", "setting": "[13]", "value": 42.4, "unit": "nM"}, {"measurement": "GI50", "setting": "[14]", "value": 35.2, "unit": "nM"}, {"measurement": "GI50", "setting": "[15]", "value": 67.5, "unit": "nM"}, {"measurement": "GI50", "setting": "[16]", "value": 36, "unit": "nM"}, {"measurement": "GI50", "setting": "[17]", "value": 45.3, "unit": "nM"}, {"measurement": "GI50", "setting": "[18]", "value": 38.8, "unit": "nM"}, {"measurement": "GI50", "setting": "[19]", "value": 24.3, "unit": "nM"}, {"measurement": "GI50", "setting": "[20]", "value": 49.9, "unit": "nM"}, {"measurement": "GI50", "setting": "[21]", "value": 39.1, "unit": "nM"}, {"measurement": "GI50", "setting": "[22]", "value": 38.1, "unit": "nM"}, {"measurement": "GI50", "setting": "[23]", "value": 24.3, "unit": "nM"}, {"measurement": "GI50", "setting": "[24]", "value": 64.3, "unit": "nM"}, {"measurement": "GI50", "setting": "[25]", "value": 83.1, "unit": "nM"}, {"measurement": "GI50", "setting": "[26]", "value": 50.3, "unit": "nM"}, {"measurement": "GI50", "setting": "[27]", "value": 96.5, "unit": "nM"}, {"measurement": "GI50", "setting": "[28]", "value": 505, "unit": "nM"}, {"measurement": "GI50", "setting": "[29]; MDA-MB-231/ATCC, five dose 0.01–100 µM, read-out: GI50", "value": 32.2, "unit": "nM"}, {"measurement": "IC50", "setting": "[29]; MDA-MB-231, obtained from NCI, five concentrations 0.01–100 μM, read-out: Antiproliferative Activity IC50", "value": 31.3, "unit": "nM"}, {"measurement": "GI50", "setting": "[30]", "value": 36.8, "unit": "nM"}, {"measurement": "CC50", "setting": "[31]; Homo sapiens, 60 cell, 9 h, read-out: LC50", "value": "> 100000", "unit": "nM"}, {"measurement": "GI50", "setting": "[31]; Homo sapiens, 60 cell, read-out: Mean GI50, mean over all NCI 60 cell lines", "value": "< 91.2", "unit": "nM"}, {"measurement": "CC50", "setting": "[31]; Homo sapiens, 60 cell, read-out: Mean LC50", "value": 87100, "unit": "nM"}, {"measurement": "IC (TGI (total growth inhibition))", "setting": "[31]; Homo sapiens, 60 cell, read-out: Mean TGI", "value": 15500, "unit": "nM"}, {"measurement": "GI50", "setting": "[31]; read-out: Mean GI50, mean over all NCI 60 cell lines", "value": 58.9, "unit": "nM"}]}
